# Measured values published in ChEMBL document CHEMBL3045245, “Synthesis and antitumor activities of certain novel 2-amino-9-(4-halostyryl)-4H-pyrano[3,2-h]quinoline derivatives” (Med Chem Res, 2012).
# Tests used:
# MCF7 [1] = test: Cytotoxicity against Homo sapiens (human) MCF7 cells assessed as cell viability at 1.56 ug/ml after 48 hr by MTT assay; format: functional; conditions: MCF7, 48 h, read-out: Activity
# HepG2 [2] = test: Cytotoxicity against Homo sapiens (human) HepG2 cells assessed as cell viability at 6.25 ug/ml after 48 hr by MTT assay; format: functional; conditions: HepG2, 48 h, read-out: Activity
# MCF7 [3] = test: Cytotoxicity against Homo sapiens (human) MCF7 cells assessed as cell viability at 3.125 ug/ml after 48 hr by MTT assay; format: functional; conditions: MCF7, 48 h, read-out: Activity
# [4] = Cytotoxicity against Homo sapiens (human) HCT cells assessed as cell viability at 12.5 ug/ml after 48 hr by MTT assay; format: functional; conditions: read-out: Activity
# HepG2 [5] = test: Cytotoxicity against Homo sapiens (human) HepG2 cells assessed as cell viability at 1.56 ug/ml after 48 hr by MTT assay; format: functional; conditions: HepG2, 48 h, read-out: Activity
# [6] = Cytotoxicity against Homo sapiens (human) HCT cells assessed as cell viability at 25 ug/ml after 48 hr by MTT assay; format: functional; conditions: read-out: Activity
# HepG2 [7] = test: Cytotoxicity against Homo sapiens (human) HepG2 cells assessed as cell viability at 12.5 ug/ml after 48 hr by MTT assay; format: functional; conditions: HepG2, 48 h, read-out: Activity
# HepG2 [8] = test: Cytotoxicity against Homo sapiens (human) HepG2 cells after 48 hr by MTT assay; format: functional, cell-based; conditions: HepG2, 48 h
# [9] = Cytotoxicity against Homo sapiens (human) HCT cells assessed as cell viability at 3.125 ug/ml after 48 hr by MTT assay; format: functional; conditions: read-out: Activity
# MCF7 [10] = test: Cytotoxicity against Homo sapiens (human) MCF7 cells assessed as cell viability at 6.25 ug/ml after 48 hr by MTT assay; format: functional; conditions: MCF7, 48 h, read-out: Activity
# MCF7 [11] = test: Cytotoxicity against Homo sapiens (human) MCF7 cells after 48 hr by MTT assay; format: functional, cell-based; conditions: MCF7, 48 h
# HepG2 [12] = test: Cytotoxicity against Homo sapiens (human) HepG2 cells assessed as cell viability at 3.125 ug/ml after 48 hr by MTT assay; format: functional; conditions: HepG2, 48 h, read-out: Activity
# [13] = Cytotoxicity against Homo sapiens (human) HCT cells after 48 hr by MTT assay; format: functional, cell-based
# [14] = Cytotoxicity against Homo sapiens (human) HCT cells assessed as cell viability at 1.56 ug/ml after 48 hr by MTT assay; format: functional; conditions: read-out: Activity
# HepG2 [15] = test: Cytotoxicity against Homo sapiens (human) HepG2 cells assessed as cell viability at 50 ug/ml after 48 hr by MTT assay; format: functional; conditions: HepG2, 48 h, read-out: Activity
# MCF7 [16] = test: Cytotoxicity against Homo sapiens (human) MCF7 cells assessed as cell viability at 12.5 ug/ml after 48 hr by MTT assay; format: functional; conditions: MCF7, 48 h, read-out: Activity
# HepG2 [17] = test: Cytotoxicity against Homo sapiens (human) HepG2 cells assessed as cell viability at 25 ug/ml after 48 hr by MTT assay; format: functional; conditions: HepG2, 48 h, read-out: Activity
# [18] = Cytotoxicity against Homo sapiens (human) HCT cells assessed as cell viability at 50 ug/ml after 48 hr by MTT assay; format: functional; conditions: read-out: Activity
# [19] = Cytotoxicity against Homo sapiens (human) HCT cells assessed as cell viability at 6.25 ug/ml after 48 hr by MTT assay; format: functional; conditions: read-out: Activity
# MCF7 [20] = test: Cytotoxicity against Homo sapiens (human) MCF7 cells assessed as cell viability at 25 ug/ml after 48 hr by MTT assay; format: functional; conditions: MCF7, 48 h, read-out: Activity
# MCF7 [21] = test: Cytotoxicity against Homo sapiens (human) MCF7 cells assessed as cell viability at 50 ug/ml after 48 hr by MTT assay; format: functional; conditions: MCF7, 48 h, read-out: Activity
SMILES,viability at 1.56 µg/mL (MCF7 [1]),viability at 6.25 µg/mL (HepG2 [2]),viability at 3.125 µg/mL (MCF7 [3]),viability at 12.5 µg/mL [4],viability at 1.56 µg/mL (HepG2 [5]),viability at 25 µg/mL [6],viability at 12.5 µg/mL (HepG2 [7]),IC50 (HepG2 [8]),viability at 3.125 µg/mL [9],viability at 6.25 µg/mL (MCF7 [10]),IC50 (MCF7 [11]),viability at 3.125 µg/mL (HepG2 [12]),IC50 [13],viability at 1.56 µg/mL [14],viability at 50 µg/mL (HepG2 [15]),viability at 12.5 µg/mL (MCF7 [16]),viability at 25 µg/mL (HepG2 [17]),viability at 50 µg/mL [18],viability at 6.25 µg/mL [19],viability at 25 µg/mL (MCF7 [20]),other results
N#CC1=C(N)Oc2c(ccc3ccc(/C=C/c4ccc(Br)cc4)nc23)C1c1ccc(Cl)cc1 (centres undefined),80.6%,53.1%,73%,41.9%,77.9%,30.3%,39.4%,7.5 µg/mL,89.8%,64.7%,15.9 µg/mL,64.4%,10.2 µg/mL,98%,25.2%,53.1%,29%,22.8%,74.9%,41.2%,viability at 50 µg/mL (MCF7 [21]): 29.4%
CCOC(=O)C1=C(N)Oc2c(ccc3ccc(/C=C/c4ccc(Br)cc4)nc23)C1c1ccc(Cl)cc1 (centres undefined),69.4%,39.3%,57.9%,34.4%,72.1%,24.7%,36.4%,3.1 µg/mL,66.2%,45.5%,5.4 µg/mL,49.6%,6.1 µg/mL,72.1%,14.6%,41.6%,22.9%,17.6%,48.1%,31%,viability at 50 µg/mL (MCF7 [21]): 25.6%
CCOC(=O)C1=C(N)Oc2c(ccc3ccc(/C=C/c4ccc(Br)cc4)nc23)C1c1ccc(Br)cc1 (centres undefined),62.3%,48.6%,45.5%,52.2%,79.6%,31.4%,42.2%,6.1 µg/mL,76.6%,31.6%,2.4 µg/mL,61%,12.8 µg/mL,86%,23.4%,23.8%,36.1%,26%,62.8%,17.9%,viability at 50 µg/mL (MCF7 [21]): 13%
CC[C@]1(O)C[C@@H]2CN(CCc3c([nH]c4ccccc34)[C@@](C(=O)OC)(c3cc4c(cc3OC)N(C)[C@H]3[C@@](O)(C(=O)OC)[C@H](OC(C)=O)[C@]5(CC)C=CCN6CC[C@]43[C@@H]65)C2)C1 [VINBLASTINE],76.2%,45.1%,60.4%,28.2%,72.1%,21.7%,24.2%,4.6 µg/mL,47.5%,48.8%,6.1 µg/mL,55%,2.6 µg/mL,53.4%,14.4%,29.6%,16.1%,16.3%,38.1%,15.2%,viability at 50 µg/mL (MCF7 [21]): 7.82%
